From paper PMC9858427, “Design, synthesis and biological evaluation of 2-((4-sulfamoylphenyl)amino)-pyrrolo[2,3-d]pyrimidine derivatives as CDK inhibitors” (Journal of Enzyme Inhibition and Medicinal Chemistry, 2023)
Like-named read-outs stand apart in the source and are kept apart here.

Key:
CDK4 = CDK4 (Homo sapiens, UniProt P11802); assay: CDK4 kinase IC50, Mobility shift assay; format: biochemical
Experimental: CDK kinase activity (IC50 values and inhibitory rate at single concentration) was measured using the kinase profiling services (Shanghai ChemPartner Co., Ltd). Compounds were sent to ChemPartner as a solution in DMSO at concentration of 10 mM.

BxPC-3 = assay: MTT proliferation assay in BxPC-3 cells; format: cell-based; details: Homo sapiens, 72 h drug exposure
Experimental: (§1) The human pancreatic carcinoma MIA PaCa-2 was purchased from China Centre for Type Culture Collection, AsPC-1 and BxPC-3 cell Lines were purchased from Cell Centre of the Institute of Basic Medical Sciences, Chinese Academy of Medical Sciences and Peking Union Medical College. PANC-1 was kindly provided by Nankai Hospital (Tianjin, China). These cancer cell lines were cultured according to the manufacturer’s instruction.
(§2) Cells were planted in 96-well plates at a density of 3000–4000 cells per well and incubated at 37 °C in a humidified CO2 incubator for 24 h. Then 3-fold diluted concentrations of tested compound were added respectively which was dissolved by DMSO in the ratio of 1:1000. After indicated incubation period, MTT was added to each well and incubated for 4 h at 37 °C. Then, the supernatant was discarded gently, and the precipitate was dissolved in 100 µL of DMSO in each well. The absorbance (A) at 570 nm was detected with a microplate reader (Multiskan MK3; Thermo Fisher Scientific, MA, USA). Vehicle-treated cells were served as the control for the calculation of relative cell viability (%) of treated group at single concentration. IC50 value was calculated directly from the inhibition curve of serial dilution of test compound and was expressed as mean ± SD using the SPSS statistical software (SPSS17.0 Inc., Chicago, IL, USA).

AsPC-1 = assay: MTT proliferation assay in AsPC-1 cells; format: cell-based; details: Homo sapiens, ASPC1; 72 h drug exposure
Experimental: as §1, §2

Oral PK study in rats = format: in vivo; details: male, SD, rat, plasma, 30 mg/kg
Experimental: Synthetic compound was administered as a suspension or solution in the saline with 5% DMSO and 5% Solutol. GCTB was dissolved in saline. All of the experiments were approved by the Institutional Animal Care and Use Committee of Institute of Medicinal Biotechnology. All experiments were carried out under ethics committee–approved protocols and in compliance with the guidelines for the care of laboratory animals of Institute of Medicinal Biotechnology, CAMS.
SD rats were purchased from Beijing Vital River Laboratory Animal Technology Co., Ltd and randomly divided into three groups (n = 3, male). The animals were housed under standard conditions and fastened for 12 h before the treatment. They had free access to water and consumed a standard laboratory diet from 4 h after administration. Blood was taken from the orbital venous plexus at 0, 0.083, 0.25, 0.5, 1, 2, 4, 6, 8, and 24 h after intragastric administration of the test compound (30 mg/kg). The blood samples were collected into heparin anticoagulated EP tubes and centrifuged at 8000 r/min for 5 min at 2−8 °C; the plasma was separated and stored at −70 °C for use. Plasma was centrifuged at 4000 rpm for 10 min at 2−8 °C and stored at −70 °C until analysis. Plasma samples were analysed by LC-MS/MS (AB Sciex API4000 QTRAP) equipped with an ESI ion resource and Analyst 1.5.1 software. The noncompartmental model analysis was used for calculating pharmacokinetic parameters with the WinNolin professional v6.3 program (Pharsight, USA).

[1] = Body weight and H&E pathology of main organs in xenograft mice; format: in vivo, BALB/C nude mice
Experimental: (§3) AsPC-1 (5 × 10^7) cells were injected subcutaneously into 5-week-old female BALB/C nude mice (Beijing Huafukang Bioscience CO. Inc, Beijing, China). After two weeks, mice were omogenizamised and treated with vehicle, gemcitabine (GCTB), or test compound. Blank solvent and test compound was administered by oral gavage (10 ml/kg) with once daily of five days and followed by 2 days off in each week, GCTB was given once a week by 50 mg/kg intraperitoneal injection. Mice were inspected daily for clinical signs, both tumour diameters and body weight were determined 3 times weekly. Tumour volumes were calculated according to the formula “tumor volume (V) = length × width^2/2”. Median TGI values were calculated as follows: TGI = 100 × [1-(Vtreated group at day20-Vtreated group at day1)/(Vvehicle group at day20-Vvehicle group at day1)]. Data were plotted as average with SD in the graphical representation of tumour growth. The p values obtained from the two-way ANOVA analysis. Meanwhile, main organs of mice were collected, formalin-fixed and paraffin-embedded for pathological analysis by H&E dyeing. For drug concentration determination, blood and tumour tissues were collected at indicated time after single administration. Standard curve of test compound was established in the acquisition mode of SIM using a SHIMADZU LC-MS instrument. Blood kept in anticoagulant tube coated with heparin sodium was centrifuged to provide the supernatant, which was followed by added with 3-fold acetonitrile to precipitate plasma protein. After centrifugation at 10 × 10^3 for 5 min, the supernatant was injected directedly into LC-MS instrument for quantification of drug concentration. As for tumour tissues, omogenizationation (Precellys Evolution) was done after weighed accurately and added with 3-fold saline. After centrifugation under same condition as plasma samples, supernatant was separated and injected into LC-MS for quantification.

[2] = Solubility / precipitation observations; format: physicochemical
[3] = Drug concentration in tumour tissue and plasma of tumour-bearing mice; format: in vivo, BALB/C nude mice; details: for concentration at 1 h / concentration at 4 h: female, BALB/C nude, mouse, tumour-bearing mice (n = 3); for concentration at 1 h: 1.0 h after 30 mg/kg single oral dosing; for concentration at 4 h: 4.0 h after 30 mg/kg single oral dosing
Experimental: as §3

MIA PaCa-2 cells = assay: Cell viability after CDK9 knockdown by siRNA; format: cell-based, human; details: siCDK9 50 nM; compound 0.2 µM, 72 h
Experimental: as §2
Specific siRNAs against CDK9 (Catelog ID: SIGS0004694-1) were purchased from RiboBio (Guangdong, China) together with a scrambled siRNA. […] Approximately 48 h after transfection, the cells were analysed for protein expression by Western blot. […]

[4] = plasma, read-out: Drug concentration (µM) Plasma
[5] = read-out: Drug concentration (µM) Tumour

Chain of CDK4 (P11802 whole entry): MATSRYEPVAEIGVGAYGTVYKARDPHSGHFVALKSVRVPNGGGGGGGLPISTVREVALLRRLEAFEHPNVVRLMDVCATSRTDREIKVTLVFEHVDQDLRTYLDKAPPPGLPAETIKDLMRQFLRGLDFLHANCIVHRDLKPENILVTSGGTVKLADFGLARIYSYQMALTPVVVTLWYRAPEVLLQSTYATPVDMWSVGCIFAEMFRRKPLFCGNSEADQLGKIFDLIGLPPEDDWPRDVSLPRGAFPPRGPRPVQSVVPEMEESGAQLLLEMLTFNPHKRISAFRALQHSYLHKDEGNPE
Chain of CDK4 (P30281 whole entry partner): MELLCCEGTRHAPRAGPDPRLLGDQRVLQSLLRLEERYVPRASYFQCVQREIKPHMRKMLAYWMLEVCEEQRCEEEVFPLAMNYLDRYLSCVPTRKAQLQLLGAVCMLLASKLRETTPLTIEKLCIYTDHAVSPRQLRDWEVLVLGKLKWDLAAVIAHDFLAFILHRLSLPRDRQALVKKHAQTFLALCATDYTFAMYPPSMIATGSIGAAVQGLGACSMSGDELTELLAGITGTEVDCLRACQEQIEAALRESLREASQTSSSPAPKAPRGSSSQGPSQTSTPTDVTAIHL

`CN(C)C(=O)c1cc2cnc(Nc3ccc(S(N)(=O)=O)cc3)nc2n1C1CCCC1` [compound 2g, 7-Cyclopentyl-N,N-dimethyl-2-((4-sulfamoylphenyl)amino)-7H-pyrrolo[2,3-d]pyrimidine-6-carboxamide] gave an IC50 (CDK4) of 12 nM, an IC50 (BxPC-3) of 0.226 ± 0.065 µM and an IC50 (AsPC-1) of 1.4 ± 0.034 µM. It also gave a Cmax (Oral PK study in rats; single oral administration, read-out: maximum plasma drug concentration (Cmax)) of 1160 ng/mL, an AUC (Oral PK study in rats; single oral administration, read-out: systematic exposure (AUC0‑t)) of 4620 ng·h/mL and an AUC(0-inf) (Oral PK study in rats; oral, n = 3) of 5080 ± 268 ng·h/mL. For the same compound, the AUC(0-t) (Oral PK study in rats; oral, n = 3) was 4620 ± 145 ng·h/mL, the MRT (Oral PK study in rats; oral, n = 3) was 7.72 h and the Tmax (Oral PK study in rats; oral, n = 3) was 0.5 h. For the same compound, the half-life (Oral PK study in rats; oral, n = 3) was 7.54 h, the Cmax (Oral PK study in rats; oral, n = 3, read-out: Cmax) was 2700 nM and the “pathological change in main organs (H&E)” value ([1]; after 3-week treatment) was “no obvious pathological change”. The body weight change ([1]; high dose of 2g, first ten days of administration) was “obvious decrease of body weight”, the “solubility (in words)” value [2] was “much poorer than 5b” and the “drug concentration in plasma and tumour tissue relative to cellular IC50 value” ([3]; 30 mg/kg single oral dosing, both plasma and tumour tissue) was “higher than 2 fold”. The concentration at 1 h [3, 4] was 7.46 ± 1.95 µM, the concentration at 4 h [3, 4] was 0.53 ± 0.41 µM and the concentration at 1 h [3, 5] was 3.13 ± 0.64 µM. The concentration at 4 h [3, 5] was 0.48 ± 0.34 µM and the “sensitivity of MIA PaCa-2 cells to compound after downregulation of CDK9 by siRNA” value (MIA PaCa-2 cells) was “significantly decreased”.
